Patent US12011444B2, “N-substituted indole derivatives as PGE2 receptor modulators” (Idorsia Pharmaceuticals Ltd, priority 2015, dated 2024)

Key:
[1] = target: PTGER2 (EP2) (Homo sapiens (Human), UniProt P43116); assay: hEP2 b-arrestin assay (PathHunter HEK 293 PTGER2 b-arrestin cells); type: cell-based
Summary of the method: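 HEK293 cells expressing ProLink-tagged EP2 and EA-fused β-arrestin 2 (enzyme fragment complementation) were seeded 24 h, pre-incubated with compound 15 min at 37 °C, then stimulated with 5 μM PGE2 (final) for 120 min.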

[2] = target: PTRGER4 (EP4) (Homo sapiens (Human), UniProt P35408); assay: hEP4 b-arrestin assay (PathHunter HEK 293 PTGER4 b-arrestin cells); type: cell-based
Sequence of PTRGER4 (EP4) (P35408 whole entry, looked up, the tested form may be a part): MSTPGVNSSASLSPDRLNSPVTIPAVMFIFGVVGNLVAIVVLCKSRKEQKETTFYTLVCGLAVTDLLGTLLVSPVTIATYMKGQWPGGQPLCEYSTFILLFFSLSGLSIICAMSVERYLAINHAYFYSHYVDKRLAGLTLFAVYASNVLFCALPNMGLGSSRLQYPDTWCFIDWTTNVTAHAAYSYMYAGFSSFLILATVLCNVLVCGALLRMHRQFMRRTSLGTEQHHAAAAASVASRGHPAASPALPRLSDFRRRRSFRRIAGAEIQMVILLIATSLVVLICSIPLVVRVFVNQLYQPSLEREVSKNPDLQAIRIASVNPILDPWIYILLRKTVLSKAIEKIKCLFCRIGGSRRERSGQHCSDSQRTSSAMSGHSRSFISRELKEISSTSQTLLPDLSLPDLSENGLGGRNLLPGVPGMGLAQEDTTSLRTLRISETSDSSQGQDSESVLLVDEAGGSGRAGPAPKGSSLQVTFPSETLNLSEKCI
Summary of the method: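 Stably transfected HEK293 cells carrying EP4–ProLink and β-arrestin 2–EA (β-gal fragment complementation), pre-incubated with compound 15 min at 37 °C, then stimulated with PGE2 (20 nM final) for 120 min at 37 °C. Chemiluminescence read after 1 h detection reagent at room temperature; activity per concentration expressed as percent of DMSO control.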

[3] = hEP2 b-arrestin assay (values without asterisk)
[4] = hEP4 b-arrestin assay (values without asterisk)
[5] = antagonistic activity on hEP2, mean where measured multiple times
[6] = antagonistic activity on hEP4, mean where measured multiple times

Sequence of PTGER2 (EP2) (P43116 whole entry, the tested form may be a part): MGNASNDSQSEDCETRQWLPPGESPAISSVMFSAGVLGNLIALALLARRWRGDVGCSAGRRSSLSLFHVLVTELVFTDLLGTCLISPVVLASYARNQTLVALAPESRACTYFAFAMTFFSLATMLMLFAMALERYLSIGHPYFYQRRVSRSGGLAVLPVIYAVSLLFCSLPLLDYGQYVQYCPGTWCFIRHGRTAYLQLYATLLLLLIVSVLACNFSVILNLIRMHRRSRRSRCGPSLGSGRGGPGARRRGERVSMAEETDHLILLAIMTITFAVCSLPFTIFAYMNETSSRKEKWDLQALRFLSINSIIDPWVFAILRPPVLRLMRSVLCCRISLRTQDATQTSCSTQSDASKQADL

COc1ccc(F)c2c1cc(C#N)n2CCNc1cc(-c2ccc3oc(=O)n(C)c3c2)ncn1 [Example 973, 7-Fluoro-4-methoxy-1-{2-[6-(3-methyl-2-oxo-2,3-dihydro-benzooxazol-5-yl)-pyrimidin-4-ylamino]-ethyl}-1H-indole-2-carbonitrile]
IC50 [1, 3]: 15 nM
IC50 [2, 4]: 49 nM

COc1ccc(F)c2c1cc(C#N)n2CCNc1cc(-c2cc(C(F)(F)F)c(C(=O)O)s2)ncn1 [Example 804, 5-{6-[2-(2-Cyano-7-fluoro-4-methoxy-indol-1-yl)-ethylamino]-pyrimidin-4-yl}-3-trifluoromethyl-thiophene-2-carboxylic acid]
IC50 [1, 3]: 3 nM
IC50 [2, 4]: 2 nM

Cc1ccc(Cl)c2c1cc(C)n2CCNc1cc(-c2ccc(C(=O)O)c(SCC(C)C)c2)ncn1 [compound 368]
IC50 [1, 5]: 63 nM
IC50 [2, 6]: 360 nM

CNc1cc(-c2cc(NCCn3c(C#N)cc4c(OC)ccc(F)c43)ncn2)ccc1C(=O)O [Example 1010, 4-{6-[2-(2-Cyano-7-fluoro-4-methoxy-indol-1-yl)-ethylamino]-pyrimidin-4-yl}-2-methylamino-benzoic acid]
IC50 [1, 3]: 3 nM
IC50 [2, 4]: 7 nM

CCOc1cc(-c2cc(NCCn3c(C)cc4c(F)c(F)cc(Cl)c43)ncn2)ccc1C(=O)O [compound 350, 4-{6-[2-(7-Chloro-4,5-difluoro-2-methyl-indol-1-yl)-ethylamino]-pyrimidin-4-yl}-2-ethoxy-benzoic acid]
IC50 [1, 5]: 6 nM
IC50 [2, 6]: 993 nM

CCOc1cc(-c2cc(NCCn3c(C#N)cc4c(OC)ccc(F)c43)ncn2)sc1C(=O)NS(C)(=O)=O [Example 809, N-(5-{6-[2-(2-Cyano-7-fluoro-4-methoxy-indol-1-yl)-ethylamino]-pyrimidin-4-yl}-3-ethoxy-thiophene-2-carbonyl)-methanesulfonamide]
IC50 [1, 3]: 3 nM
IC50 [2, 4]: 6 nM

CCSc1cc(-c2cc(NCCn3c(C)cc4c(Cl)ccc(Cl)c43)ncn2)ccc1C(=O)O [compound 149, 4-{6-[2-(4,7-Dichloro-2-methyl-indol-1-yl)-ethylamino]-pyrimidin-4-yl}-2-ethylsulfanyl-benzoic acid]
IC50 [1, 5]: 10 nM
IC50 [2, 6]: 605 nM

COc1ccc(F)c2c1cc(C#N)n2CCNc1cc(-c2ccc(-c3nc(=O)[nH]o3)cc2)ncn1 [Example 831, 7-Fluoro-1-(2-{6-[4-(3-oxo-2,3-dihydro-[1,2,4]-oxadiazol-5-yl)-phenyl]-pyrimidin-4-ylamino}-ethyl)-4-methoxy-1H-indole-2-carbonitrile]
IC50 [1, 3]: 19 nM
IC50 [2, 4]: 17 nM

CCOc1cc(-c2cc(NCCn3c(C)cc4c(C)cc(F)cc43)ncn2)ccc1-c1noc(=O)[nH]1 [Example 835, 3-(2-Ethoxy-4-{6-[2-(6-fluoro-2,4-dimethyl-indol-1-yl)-ethylamino]-pyrimidin-4-yl}-phenyl)-[1,2,4]oxadiazol-5(4H)-one]
IC50 [1, 3]: 19 nM
IC50 [2, 4]: 31 nM

Cc1ccc(F)c2c1cc(C)n2CCNc1cc(-c2ccc(C(=O)O)c(N)c2)ncn1 [compound 41]
IC50 [1, 5]: 101 nM
IC50 [2, 6]: 91 nM

COc1ccc(F)c2c1cc(C#N)n2CCNc1cc(-c2ccc3c(=O)n(C)[nH]c3c2)ncn1 [Example 920, 7-Fluoro-4-methoxy-1-{2-[6-(2-methyl-3-oxo-2,3-dihydro-1H-indazol-6-yl)-pyrimidin-4-ylamino]-ethyl}-1H-indole-2-carbonitrile]
IC50 [1, 3]: 39 nM
IC50 [2, 4]: 68 nM

COc1ccc(F)c2c1cc(C)n2CCNc1cc(-c2ccc3c(c2)CN(C)C3=O)ncn1 [compound 204, 5-{6-[2-(7-Fluoro-4-methoxy-2-methyl-indol-1-yl)-ethylamino]-pyrimidin-4-yl}-2-methyl-2,3-dihydro-isoindol-1-one]
IC50 [1, 5]: 31 nM
IC50 [2, 6]: 182 nM

Cc1cc2c(Cl)ccc(F)c2n1CCNc1cc(-c2ccc(C(=O)O)cc2)ncn1 [compound 46]
IC50 [1, 5]: 29 nM
IC50 [2, 6]: 970 nM

COc1ccc(F)c2c1cc(C#N)n2CCNc1cc(-c2ccc(NC=O)cc2)ncn1 [Example 971, N-(4-{6-[2-(2-Cyano-7-fluoro-4-methoxy-indol-1-yl)-ethylamino]-pyrimidin-4-yl}-phenyl)-formamide]
IC50 [1, 3]: 39 nM
IC50 [2, 4]: 24 nM

Cc1cc2c(Cl)cccc2n1CCNc1cc(-c2ccc(C(=O)O)c(CC(C)C)c2)ncn1 [compound 268]
IC50 [1, 5]: 11 nM
IC50 [2, 6]: 635 nM

CCOc1cc(-c2cc(NCCn3c(C)cc4c(C)cc(F)cc43)ncn2)ccc1C(=O)O [compound 282]
IC50 [1, 5]: 11 nM
IC50 [2, 6]: 294 nM

COc1ccc(F)c2c1cc(C)n2CCNc1cc(-c2ccc3nccnc3c2)ncn1 [compound 376]
IC50 [1, 5]: 50 nM
IC50 [2, 6]: 184 nM

COc1nc(-c2cc(NCCn3c(C)cc4c(OC)ccc(F)c43)ncn2)sc1C(=O)O [Example 1033, 2-{6-[2-(7-Fluoro-4-methoxy-2-methyl-indol-1-yl)-ethylamino]-pyrimidin-4-yl}-4-methoxy-thiazole-5-carboxylic acid]
IC50 [1, 3]: 7 nM
IC50 [2, 4]: 37 nM

CCOc1cc(-c2cc(NCCn3c(C#N)cc4ccccc43)ncn2)ccc1C(=O)O [compound 138, 4-{6-[2-(2-Cyano-indol-1-yl)-ethylamino]-pyrimidin-4-yl}-2-ethoxy-benzoic acid]
IC50 [1, 5]: 7 nM
IC50 [2, 6]: 567 nM

CCOc1cc(-c2cc(NCCn3c(C#N)cc4c(Cl)cccc43)ncn2)ccc1NCC(=O)O [Example 915, (4-{6-[2-(4-Chloro-2-cyano-indol-1-yl)-ethylamino]-pyrimidin-4-yl}-2-ethoxy-phenylamino)-acetic acid]
IC50 [1, 3]: 12 nM
IC50 [2, 4]: 27 nM

CCNC(=O)c1sc(-c2cc(NCCn3c(C#N)cc4c(OC)ccc(F)c43)ncn2)cc1OCC [Example 1024, 5-{6-[2-(2-Cyano-7-fluoro-4-methoxy-indol-1-yl)-ethylamino]-pyrimidin-4-yl}-3-ethoxy-thiophene-2-carboxylic acid ethylamide]
IC50 [1, 3]: 14 nM
IC50 [2, 4]: 2 nM

CCOc1cc(-c2cc(NCCn3c(C)cc4c(F)ccc(C)c43)ncn2)ccc1C(=O)O [Example 812, 2-Ethoxy-4-{6-[2-(4-fluoro-2,7-dimethyl-indol-1-yl)-ethylamino]-pyrimidin-4-yl}-benzoic acid]
IC50 [1, 3]: 2 nM
IC50 [2, 4]: 976 nM

CCCc1cc(-c2cc(NCCn3c(C)cc4cc(Cl)cc(F)c43)ncn2)ccc1C(=O)O [compound 263]
IC50 [1, 5]: 90 nM
IC50 [2, 6]: 587 nM

CCCC(=O)OCOC(=O)c1sc(-c2cc(NCCn3c(C#N)cc4c(OC)ccc(F)c43)ncn2)cc1OCC [Example 1045, 5-{6-[2-(2-Cyano-7-fluoro-4-methoxy-indol-1-yl)-ethylamino]-pyrimidin-4-yl}-3-ethoxy-thiophene-2-carboxylic acid butyryloxymethyl ester]
IC50 [1, 3]: 16 nM
IC50 [2, 4]: 4 nM

Cc1ccc(F)c2c1cc(C)n2CCNc1cc(-c2ccc(CO)c(F)c2)ncn1 [compound 21, (2-Fluoro-4-{6-[2-(7-fluoro-2,4-dimethyl-indol-1-yl)-ethylamino]-pyrimidin-4-yl}-phenyl)-methanol]
IC50 [1, 5]: 42 nM
IC50 [2, 6]: 287 nM

COc1ccc(Cl)c2c1cc(C)n2CCNc1cc(-c2ccc3cnn(C)c3c2)ncn1 [compound 82]
IC50 [1, 5]: 193 nM
IC50 [2, 6]: 968 nM

COc1ccc(F)c2c1cc(C)n2CCNc1cc(-c2ccc(C(=O)NCCO)cc2)ncn1 [compound 361]
IC50 [1, 5]: 67 nM
IC50 [2, 6]: 678 nM
